Source: patent US20230373989A1, “N-PHENYLAMINOCARBONYL PYRIDINO-, PYRIMIDINO AND BENZO-TROPANES AS MODULATORS OF GPR65” (PATHIOS THERAPEUTICS LIMITED, priority 2020, published 2023)

Each compound was assayed against T1, human recombinant GPR65 (Homo sapiens, UniProt Q8IYL9) (assay: Human GPR65 cAMP HTRF antagonist assay). Settings: not given.
T1 construct: host or cells: 1321N1 human astrocytoma cells (1321N1-hrGPR65)
Assay type: cell-based
In short: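 1321N1 astrocytoma cells stably expressing GPR65 were preincubated with compound for 30 min at room temperature in KRH pH 7.6 with 1 mM IBMX and 200 μM EDTA. They were then stimulated at assay pH 7.2 for 30 min, with controls at pH 7.9. cAMP was read by HTRF (665/620 nm), normalised to controls and fitted by 4-parameter logistic to give IC50.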

T1 sequence (Q8IYL9 whole entry): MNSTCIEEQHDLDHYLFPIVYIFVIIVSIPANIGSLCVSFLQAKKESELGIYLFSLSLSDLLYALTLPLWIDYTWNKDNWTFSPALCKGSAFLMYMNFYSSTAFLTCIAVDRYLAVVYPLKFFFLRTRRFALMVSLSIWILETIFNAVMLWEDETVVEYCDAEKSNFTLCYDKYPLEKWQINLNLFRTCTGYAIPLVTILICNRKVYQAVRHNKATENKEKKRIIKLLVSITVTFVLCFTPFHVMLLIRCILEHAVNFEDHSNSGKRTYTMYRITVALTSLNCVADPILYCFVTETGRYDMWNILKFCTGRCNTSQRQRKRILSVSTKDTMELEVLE

`O=C(Nc1ccc(Cl)c(Cl)c1)N1C2CCC1c1cncnc1C2` (racemic) [Compound 48, (±)-N-(3,4-dichlorophenyl)-6,7,8,9-tetrahydro-5H-5,8-epiminocyclohepta[d]pyrimidine-10-carboxamide] and `O=C(Nc1ccc(Cl)c(Cl)c1)N1C2CCC1c1ncncc1C2` (racemic) [Compound 17, (±)-N-(3,4-Dichlorophenyl)-6,7,8,9-tetrahydro-5H-6,9-epiminocyclohepta[d]pyrimidine-10-carboxamide] cannot be ordered by IC50: less than 500 nM for the first, less than 500 nM for the second.

`N#Cc1cc(NC(=O)N2[C@H]3CC[C@@H]2c2ccnc(F)c2C3)ccc1Cl` [Compound 199, (5R,8S)-N-(4-Chloro-3-cyanophenyl)-1-fluoro-6,7,8,9-tetrahydro-5H-5,8-epiminocyclohepta[c]pyridine-10-carboxamide] and `COC(=O)c1ccc(NC(=O)N2[C@H]3CC[C@@H]2c2ccnc(F)c2C3)cc1Cl` [Compound 122, Methyl 2-chloro-4-((5R,8S)-1-fluoro-6,7,8,9-tetrahydro-5H-5,8-epiminocyclohepta[c]pyridine-10-carboxamido)benzoate] cannot be ordered by IC50: less than 500 nM for the first, less than 500 nM for the second.

`O=C(Nc1ccc(Br)c(Br)c1)N1C2CCC1c1cncnc1C2` (racemic) [Compound 16, (±)-N-(3,4-Dibromophenyl)-6.7,8,9-tetrahydro-5H-5,8-epiminocyclohepta[d]pyrimidine-10-carboxamide] and `O=C(Nc1ccc(C(F)(F)F)c(Br)c1)N1C2CCC1c1cncnc1C2` (racemic) [Compound 15, (±)-N-(3-Bromo-4-(trifluoromethyl)phenyl)-6,7,8,9-tetrahydro-5H-5,8-epiminocyclohepta[d]pyrimidine-10-carboxamide] cannot be ordered by IC50: less than 500 nM for the first, less than 500 nM for the second.

`O=C(Nc1cc(Cl)c(Cl)cc1F)N1C2CCC1c1ccc(F)nc1C2` (racemic) [Compound 181, (±)-N-(4,5-Dichloro-2-fluorophenyl)-2-fluoro-6,7,8,9-tetrahydro-5H-5,8-epiminocyclohepta[b]pyridine-10-carboxamide] and `O=C(Nc1cc(Cl)c(Cl)cc1F)N1[C@H]2CC[C@@H]1c1ccnc(F)c1C2` [Compound 79, (5R,8S)-N-(4,5-Dichlroo-2-fluorophenyl)-1-fluoro-6,7,8,9-tetrahydro-5H-5,8-epiminocyclohepta[c]pyridine-10-carboxamide] cannot be ordered by IC50: less than 500 nM for the first, less than 500 nM for the second.

`O=C(Nc1cc(Cl)c(C(F)(F)F)cc1F)N1C2CCC1c1c[nH]c(=O)c(F)c1C2` (racemic) [Compound 138, (±)-N-(5-Chloro-2-fluoro-4-(trifluoromethyl)phenyl)-4-fluoro-3-oxo-3,5,6,7,8,9-hexahydro-2H-6,9-epiminocyclohepta[c]pyridine-10-carboxamide] and `O=C(Nc1ccc(C(F)(F)F)c(Cl)c1)N1[C@H]2CC[C@@H]1c1c[nH]c(=O)nc1C2` [Compound 43, (5R,8S)-N-(3-Chloro-4-(trifluoromethyl)phenyl)-2-oxo-3,5,6,7,8,9-hexahydro-2H-5,8-epiminocyclohepta[d]pyrimidine-10-carboxamide] cannot be ordered by IC50: less than 500 nM for the first, less than 500 nM for the second.

Compared with `Cc1ncoc1-c1ccc(NC(=O)N2[C@H]3CC[C@@H]2c2ccnc(F)c2C3)cc1` [Compound 187, (5R,8S)-1-Fluoro-N-(4-(4-methyloxazol-5-yl)phenyl)-6,7,8,9-tetrahydro-5H-5,8-epiminocyclohepta[c]pyridine-10-carboxamide], `O=C(Nc1ccc(-c2ccccc2)cc1)N1[C@H]2CC[C@@H]1c1ccnc(F)c1C2` [Compound 192, (5R,8S)-N-([1,1′-Biphenyl]-4-yl)-1-fluoro-6,7,8,9-tetrahydro-5H-5,8-epiminocyclohepta[c]pyridine-10-carboxamide] is lower in IC50: 500 to 5000 nM for the first, less than 500 nM for the second.

`O=C(Nc1cc(Cl)c(Cl)c(Cl)c1)N1C2CCC1c1ccnc(F)c1C2` (racemic) [Compound 166, (±)-1-Fluoro-N-(3,4,5-trichlorophenyl)-6,7,8,9-tetrahydro-5H-5,8-epiminocyclohepta[c]pyridine-10-carboxamide] and `Cc1cc(Cl)c(Cl)cc1NC(=O)N1[C@H]2CC[C@@H]1c1ccnc(F)c1C2` [Compound 117, (5R,8S)-N-(4,5-Dichloro-2-methylphenyl)-1-fluoro-6,7,8,9-tetrahydro-5H-5,8-epiminocyclohepta[c]pyridine-10-carboxamide] cannot be ordered by IC50: less than 500 nM for the first, less than 500 nM for the second.

`Cc1cc(NC(=O)N2C3CCC2c2ccnc(F)c2C3)ccc1C(F)(F)F` (racemic) [Compound 167, (±)-1-Fluoro-N-(3-methyl-4-(trifluoromethyl)phenyl)-6,7,8,9-tetrahydro-5H-5,8-epiminocyclohepta[c]pyridine-10-carboxamide] and `O=C(Nc1ccc(Cl)c(Cl)c1)N1C2CCC1c1cnc(F)nc1C2` (racemic) [Compound 46, (±)-N-(3,4-Dichlorophenyl)-2-fluoro-6,7,8,9-tetrahydro-5H-5,8-epiminocyclohepta[d]pyrimidine-10-carboxamide] cannot be ordered by IC50: less than 500 nM for the first, less than 500 nM for the second.

`O=C(Nc1ccc(Cl)c(Cl)c1)N1[C@H]2CC[C@@H]1c1cc[n+]([O-])cc1C2` [Compound 92] gave an IC50 of less than 500 nM.

Same assay, conditions: 1321N1-hrGPR65 cells, assay pH 7.2, cAMP HTRF; read-out: hGPR65 IC50 (activity class)

First: Nc1nccc2c1C1CCC(C2)N1C(=O)Nc1ccc(Cl)c(Cl)c1 (racemic) [Compound 61, (±)-1-Amino-N-(3,4-dichlorophenyl)-6,7,8,9-tetrahydro-5H-6,9-epiminocyclohepta[c]pyridine-10-carboxamide]
Second: O=C(Nc1ccc(Cl)c(Cl)c1)N1[C@@H]2CC[C@H]1c1cnccc1C2 [Compound 112, (6R,9S)-N-(3,4-Dichlorophenyl)-6,7,8,9-tetrahydro-5H-6,9-epiminocyclohepta[c]pyridine-10-carboxamide]
The IC50 of the first is lower: 500 to 5000 nM for the first, greater than 5000 nM for the second.

`COC(=O)c1cc(NC(=O)N2[C@H]3CC[C@@H]2c2c[nH]c(=O)cc2C3)c(F)cc1Cl` [Compound 132, Methyl 2-chloro-4-fluoro-5-((6S,9R)-3-oxo-3,5,6,7,8,9-hexahydro-2H-6,9-epiminocyclohepta[c]pyridine-10-carboxamido)benzoate] and `O=C(Nc1cc(Cl)c(Cl)cc1F)N1C2CCC1c1cnc(F)c(F)c1C2` (racemic) [Compound 137, (±)-N-(4,5-Dichloro-2-fluorophenyl)-3,4-difluoro-6,7,8,9-tetrahydro-5H-6,9-epiminocyclohepta[c]pyridine-10-carboxamide] fall in the same range of IC50: 500 to 5000 nM for the first, 500 to 5000 nM for the second.

Compared with `O=C(Nc1ccc(F)c(F)c1)N1C2CCC1c1cncnc1C2` (racemic) [Compound 6, (±)-N-(3,4-Difluorophenyl)-6,7,8,9-tetrahydro-5H-5,8-epiminocyclohepta[d]pyrimidine-10-carboxamide], `O=C(Nc1ccc(Cl)c(Cl)c1)N1C2CCC1c1cc(F)ncc1C2` (racemic) [Compound 69, (±)-N-(3,4-Dichlorophenyl)-3-fluoro-6,7,8,9-tetrahydro-5H-5,8-epiminocyclohepta[c]pyridine-10-carboxamide] is lower in IC50: greater than 5000 nM for the first, 500 to 5000 nM for the second. The second is the more potent here.

`O=C(Nc1cccc(Cl)c1Cl)N1C2CCC1c1ccnc(F)c1C2` (racemic) [Compound 161, (±)-N-(2,3-Dichlorophenyl)-1-fluoro-6,7,8,9-tetrahydro-5H-5,8-epiminocyclohepta[c]pyridine-10-carboxamide] and `O=C(Nc1ccc(F)c(Cl)c1F)N1C2CCC1c1ccnc(F)c1C2` (racemic) [Compound 154, (±)-N-(3-Chloro-2,4-difluorophenyl)-1-fluoro-6,7,8,9-tetrahydro-5H-5,8-epiminocyclohepta[c]pyridine-10-carboxamide] fall in the same range of IC50: 500 to 5000 nM for the first, 500 to 5000 nM for the second.

First: O=C(Nc1ccc(Cl)c(Cl)c1)N1C2CCC1c1ccccc1C2 (racemic) [Compound 34, (±)-N-(3,4-Dichlorophenyl)-6,7,8,9-tetrahydro-5H-5,8-epiminobenzo[7]annulene-10-carboxamide]
Second: Nc1ccc2c(c1)CC1CCC2N1C(=O)Nc1ccc(Cl)c(Cl)c1 (racemic) [Compound 73, (±)-2-Amino-N-(3,4-dichlorophenyl)-6,7,8,9-tetrahydro-5H-5,8-epiminobenzo[7]annulene-10-carboxamide]
The IC50 of the first is lower: 500 to 5000 nM for the first, greater than 5000 nM for the second. The first is the more potent here.

First: N#Cc1ccc2c(c1)CC1CCC2N1C(=O)Nc1ccc(Cl)c(Cl)c1 (racemic) [Compound 72, (±)-2-Cyano-N-(3,4-dichlorophenyl)-6,7,8,9-tetrahydro-5H-5,8-epiminobenzo[7]annulene-10-carboxamide]
Second: O=C(Nc1ccc(Cl)c(Cl)c1)N1[C@@H]2CC[C@H]1c1ccncc1C2 [Compound 107, (5S,8R)-N-(3,4-Dichlorophenyl)-6,7,8,9-tetrahydro-5H-5,8-epiminocyclohepta[c]pyridine-10-carboxamide]
The IC50 of the first is lower: 500 to 5000 nM for the first, greater than 5000 nM for the second.

`O=C(Nc1ccc(-c2cnco2)cc1)N1[C@H]2CC[C@@H]1c1ccnc(F)c1C2` [Compound 188, (5R,8S)-1-Fluoro-N-(4-(oxazol-5-yl)phenyl)-6,7,8,9-tetrahydro-5H-5,8-epiminocyclohepta[c]pyridine-10-carboxamide] and `O=C(Nc1cccc(F)c1)N1C2CCC1c1ccnc(F)c1C2` (racemic) [Compound 155, (±)-1-Fluoro-N-(3-fluorophenyl)-6,7,8,9-tetrahydro-5H-5,8-epiminocyclohepta[c]pyridine-10-carboxamide] fall in the same range of IC50: 500 to 5000 nM for the first, 500 to 5000 nM for the second.

`Cn1cc2c(cc1=O)C[C@@H]1CC[C@H]2N1C(=O)Nc1ccc(Cl)c(Cl)c1` [Compound 150, (6S,9R)—N-(3,4-Dichlorophenyl)-2-methyl-3-oxo-3,5,6,7,8,9-hexahydro-2H-6,9-epiminocyclohepta[c]pyridine-10-carboxamide] and `O=C(Nc1cc(Cl)c(C(F)(F)F)cc1F)N1C2CCC1c1cnc(F)c(F)c1C2` (racemic) [Compound 136, (±)-N-(5-Chloro-2-fluoro-4-(trifluoromethyl)phenyl)-3,4-difluoro-6,7,8,9-tetrahydro-5H-6,9-epiminocyclohepta[c]pyridine-10-carboxamide] fall in the same range of IC50: 500 to 5000 nM for the first, 500 to 5000 nM for the second.
